Laboratory results: ChEMBL document CHEMBL1152246, “Design, synthesis and RNase A inhibition activity of catechin and epicatechin and nucleobase chimeric molecules” (Bioorg Med Chem Lett, 2008)
Calls of active or inactive are those of the source. The calls are words filed in the database; no cut-off is given here.

Tests used:
[1] = molecular target: T1, Ribonuclease pancreatic (Homo sapiens) (UniProt P07998); test: Inhibition of RNase A assessed as degradation of 28s and 18s rRNA at 0.412 mM after 6 hrs by agarose gel based assay
T1 sequence (whole entry): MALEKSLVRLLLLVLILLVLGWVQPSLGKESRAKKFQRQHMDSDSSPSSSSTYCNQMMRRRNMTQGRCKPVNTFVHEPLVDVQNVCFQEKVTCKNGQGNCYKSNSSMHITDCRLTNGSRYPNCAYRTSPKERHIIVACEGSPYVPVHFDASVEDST

[2] = molecular target: T1, Ribonuclease pancreatic (Homo sapiens); test: Inhibition of RNase A assessed as degradation of 28s and 18s rRNA at 0.476 mM after 6 hrs by agarose gel based assay

| SMILES | Activity [1] | Activity [2] |
| --- | --- | --- |
| CCOC(=O)Cn1c(=O)c(C)cn(CCn2cc(CO[C@H]3Cc4c(O)cc(O)cc4O[C@@H]3c3ccc(O)c(O)c3)nn2)c1=O | inactive |  |
| CCOC(=O)Cn1c(=O)c(C)cn(CCn2cc(CO[C@@H]3Cc4c(O)cc(O)cc4O[C@@H]3c3ccc(O)c(O)c3)nn2)c1=O | inactive |  |
| Nc1ncnc2c1ncn2CCn1cc(CO[C@@H]2Cc3c(O)cc(O)cc3O[C@@H]2c2ccc(O)c(O)c2)nn1 |  | Active |
| Nc1ncnc2c1ncn2CCn1cc(CO[C@H]2Cc3c(O)cc(O)cc3O[C@@H]2c2ccc(O)c(O)c2)nn1 |  | Active |
